#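 All cell lines were grown in 96-well plates and treated with compound for 48 hours. Definition used: TGI = concentration required for complete inhibition of growth.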
# Columns and labels:
# Test in all cases: NCI-60 cell line screen, 48 h
# [1] = test system: 786-0 renal
# [2] = test system: A498 renal
# [3] = test system: A549 NSCLC
# [4] = test system: ACHN renal
# [5] = test system: BT-549 breast
# [6] = test system: CAKI-1 renal
# [7] = test system: CCRF-CEM leukemia
# [8] = test system: COLO 205 colon
# [9] = test system: DU-145 prostate
# [10] = test system: EKVX NSCLC
# [11] = test system: HCT-116 colon
# [12] = test system: HCT-15 colon
# [13] = test system: HL-60(TB) leukemia
# [14] = test system: HOP-62 NSCLC
# [15] = test system: HS 578T breast
# [16] = test system: HT29 colon
# [17] = test system: IGROV1 ovarian
# [18] = test system: KM12 colon
# [19] = test system: LOX IMVI melanoma
# [20] = test system: M14 melanoma
# [21] = test system: MALME-3M melanoma
# [22] = test system: MCF7 breast
# [23] = test system: MDA-MB-231 breast
# [24] = test system: MDA-MB-435
# [25] = test system: MDA-N
# [26] = test system: MOLT-4 leukemia
# [27] = test system: NCI-H226 lung
# [28] = test system: NCI-H23 lung
# [29] = test system: NCI-H522 lung
# [30] = test system: NCI/ADR-RES ovarian
# [31] = test system: OVCAR-4 ovarian
# [32] = test system: OVCAR-5 ovarian
# [33] = test system: OVCAR-8 ovarian
# [34] = test system: PC-3 prostate
# [35] = test system: RXF 393 renal
# [36] = test system: SF-268 CNS
# [37] = test system: SF-295 CNS
# [38] = test system: SF-539 CNS
# [39] = test system: SK-MEL-2 melanoma
# [40] = test system: SK-MEL-28 melanoma
# [41] = test system: SK-MEL-5 melanoma
# [42] = test system: SK-OV-3 ovarian
# [43] = test system: SN12C renal
# [44] = test system: SNB-19 CNS
# [45] = test system: SNB-75 CNS
# [46] = test system: SW-620 colon
# [47] = test system: T-47D breast
# [48] = test system: TK-10 renal
# [49] = test system: U251 CNS
# [50] = test system: UACC-257 melanoma
# [51] = test system: UACC-62 melanoma
# [52] = test system: UO-31 renal
# [53] = test system: HCC-2998 colon
# [54] = test system: HOP-92 NSCLC
# [55] = test system: K-562 leukemia
# [56] = test system: NCI-H460 lung
# [57] = test system: RPMI-8226 leukemia
# [58] = test system: SR leukemia
# [59] = test system: OVCAR-3 ovarian
structure (smiles),measurement,setting,value
CNc1cc(OCc2ccccc2)c(OC)cc1C(=O)N1CCC[C@H]1CO,TGI,[1],> 100 µM
same,TGI,[2],> 100 µM
same,TGI,[3],> 100 µM
same,TGI,[4],> 100 µM
same,TGI,[5],> 100 µM
same,TGI,[6],> 100 µM
same,TGI,[7],> 100 µM
same,TGI,[8],> 100 µM
same,TGI,[9],> 100 µM
same,TGI,[10],> 100 µM
same,TGI,[11],> 100 µM
same,TGI,[12],> 100 µM
same,TGI,[13],> 100 µM
same,TGI,[14],> 100 µM
same,TGI,[15],> 100 µM
same,TGI,[16],> 100 µM
same,TGI,[17],> 100 µM
same,TGI,[18],> 100 µM
same,TGI,[19],> 100 µM
same,TGI,[20],> 100 µM
same,TGI,[21],> 100 µM
same,TGI,[22],> 100 µM
same,TGI,[23],> 100 µM
same,TGI,[24],> 100 µM
same,TGI,[25],> 100 µM
same,TGI,[26],> 100 µM
same,TGI,[27],> 100 µM
same,TGI,[28],> 100 µM
same,TGI,[29],> 100 µM
same,TGI,[30],> 100 µM
same,TGI,[31],> 100 µM
same,TGI,[32],> 100 µM
same,TGI,[33],> 100 µM
same,TGI,[34],> 100 µM
same,TGI,[35],> 100 µM
same,TGI,[36],> 100 µM
same,TGI,[37],> 100 µM
same,TGI,[38],> 100 µM
same,TGI,[39],> 100 µM
same,TGI,[40],> 100 µM
same,TGI,[41],> 100 µM
same,TGI,[42],> 100 µM
same,TGI,[43],> 100 µM
same,TGI,[44],> 100 µM
same,TGI,[45],> 100 µM
same,TGI,[46],> 100 µM
same,TGI,[47],> 100 µM
same,TGI,[48],> 100 µM
same,TGI,[49],> 100 µM
same,TGI,[50],> 100 µM
same,TGI,[51],> 100 µM
same,TGI,[52],> 100 µM
COc1ccc2c(c1)CN1C(=N2)CSC1c1c(Cl)cccc1[N+](=O)[O-] (configuration not stated),TGI,[1],76.9 µM
same,TGI,[3],> 100 µM
same,TGI,[4],> 100 µM
same,TGI,[5],31.9 µM
same,TGI,[6],64.2 µM
same,TGI,[8],67.9 µM
same,TGI,[10],77.2 µM
same,TGI,[53],41.6 µM
same,TGI,[11],29.5 µM
same,TGI,[12],40.3 µM
same,TGI,[13],43.8 µM
same,TGI,[14],> 100 µM
same,TGI,[54],55.7 µM
same,TGI,[15],> 100 µM
same,TGI,[16],38.1 µM
same,TGI,[17],> 100 µM
same,TGI,[55],61.1 µM
same,TGI,[18],44.2 µM
same,TGI,[19],34.9 µM
same,TGI,[20],37.3 µM
same,TGI,[21],> 100 µM
same,TGI,[22],30 µM
same,TGI,[23],34.6 µM
same,TGI,[24],47.5 µM
same,TGI,[25],40.9 µM
same,TGI,[26],34.8 µM
same,TGI,[27],32.2 µM
same,TGI,[28],56.1 µM
same,TGI,[56],31.5 µM
same,TGI,[29],68.6 µM
same,TGI,[30],46.4 µM
same,TGI,[31],> 100 µM
same,TGI,[32],95.7 µM
same,TGI,[33],> 100 µM
same,TGI,[34],66.3 µM
same,TGI,[57],34.1 µM
same,TGI,[35],52.2 µM
same,TGI,[36],53.8 µM
same,TGI,[37],52.6 µM
same,TGI,[38],33 µM
same,TGI,[39],34.1 µM
same,TGI,[40],44.3 µM
same,TGI,[41],27 µM
same,TGI,[42],> 100 µM
same,TGI,[43],35 µM
same,TGI,[44],> 100 µM
same,TGI,[45],74.3 µM
same,TGI,[58],39 µM
same,TGI,[46],50.6 µM
same,TGI,[47],> 100 µM
same,TGI,[48],84.1 µM
same,TGI,[49],37 µM
same,TGI,[50],42.6 µM
same,TGI,[51],37 µM
same,TGI,[52],65.1 µM
N#Cc1cc(-c2nc3ccc(F)cc3s2)ccc1N,TGI,[1],> 100 µM
same,TGI,[2],> 100 µM
same,TGI,[3],> 100 µM
same,TGI,[4],> 100 µM
same,TGI,[5],> 100 µM
same,TGI,[6],> 100 µM
same,TGI,[7],> 100 µM
same,TGI,[8],> 100 µM
same,TGI,[9],> 100 µM
same,TGI,[10],> 100 µM
same,TGI,[11],> 100 µM
same,TGI,[12],> 100 µM
same,TGI,[13],> 100 µM
same,TGI,[14],> 100 µM
same,TGI,[54],> 100 µM
same,TGI,[15],> 100 µM
same,TGI,[16],> 100 µM
same,TGI,[17],> 100 µM
same,TGI,[55],> 100 µM
same,TGI,[18],> 100 µM
same,TGI,[19],> 100 µM
same,TGI,[20],> 100 µM
same,TGI,[21],> 100 µM
same,TGI,[22],> 100 µM
same,TGI,[23],> 100 µM
same,TGI,[24],> 100 µM
same,TGI,[25],> 100 µM
same,TGI,[26],> 100 µM
same,TGI,[27],> 100 µM
same,TGI,[28],> 100 µM
same,TGI,[56],> 100 µM
same,TGI,[29],> 100 µM
same,TGI,[30],> 100 µM
same,TGI,[59],> 100 µM
same,TGI,[31],> 100 µM
same,TGI,[32],> 100 µM
same,TGI,[33],> 100 µM
same,TGI,[34],> 100 µM
same,TGI,[57],> 100 µM
same,TGI,[35],> 100 µM
same,TGI,[36],> 100 µM
same,TGI,[37],> 100 µM
same,TGI,[38],> 100 µM
same,TGI,[41],> 100 µM
same,TGI,[42],96.6 µM
same,TGI,[43],> 100 µM
same,TGI,[44],> 100 µM
same,TGI,[45],> 100 µM
same,TGI,[46],> 100 µM
same,TGI,[47],> 100 µM
same,TGI,[48],> 100 µM
same,TGI,[49],> 100 µM
same,TGI,[50],> 100 µM
same,TGI,[51],> 100 µM
same,TGI,[52],> 100 µM
CCCCCCCCCCCC(=O)c1c(O)cc(C)oc1=O,TGI,[1],> 100 µM
same,TGI,[2],> 100 µM
same,TGI,[3],> 100 µM
same,TGI,[4],> 100 µM
same,TGI,[5],> 100 µM
same,TGI,[6],> 100 µM
same,TGI,[7],> 100 µM
same,TGI,[8],> 100 µM
same,TGI,[9],> 100 µM
same,TGI,[10],> 100 µM
same,TGI,[53],> 100 µM
same,TGI,[11],> 100 µM
same,TGI,[12],> 100 µM
same,TGI,[13],> 100 µM
same,TGI,[14],> 100 µM
same,TGI,[15],> 100 µM
same,TGI,[16],> 100 µM
same,TGI,[17],> 100 µM
same,TGI,[55],> 100 µM
same,TGI,[18],> 100 µM
same,TGI,[19],> 100 µM
same,TGI,[20],> 100 µM
same,TGI,[21],> 100 µM
same,TGI,[22],> 100 µM
same,TGI,[23],> 100 µM
same,TGI,[24],> 100 µM
same,TGI,[25],> 100 µM
same,TGI,[26],> 100 µM
same,TGI,[27],> 100 µM
same,TGI,[28],> 100 µM
same,TGI,[56],> 100 µM
same,TGI,[29],> 100 µM
same,TGI,[30],> 100 µM
same,TGI,[59],> 100 µM
same,TGI,[32],> 100 µM
same,TGI,[33],> 100 µM
same,TGI,[34],> 100 µM
same,TGI,[57],> 100 µM
same,TGI,[36],> 100 µM
same,TGI,[37],> 100 µM
same,TGI,[38],93.3 µM
same,TGI,[39],> 100 µM
same,TGI,[40],> 100 µM
same,TGI,[41],68.6 µM
same,TGI,[42],> 100 µM
same,TGI,[43],> 100 µM
same,TGI,[44],> 100 µM
same,TGI,[45],> 100 µM
same,TGI,[46],> 100 µM
same,TGI,[47],> 100 µM
same,TGI,[48],> 100 µM
same,TGI,[49],> 100 µM
same,TGI,[50],> 100 µM
same,TGI,[51],> 100 µM
same,TGI,[52],> 100 µM
COc1ccc(-c2nc3ccccc3c(=O)[nH]2)c(OC)c1,TGI,[1],> 100 µM
same,TGI,[2],> 100 µM
same,TGI,[3],> 100 µM
same,TGI,[4],> 100 µM
same,TGI,[5],> 100 µM
same,TGI,[6],> 100 µM
same,TGI,[7],> 100 µM
same,TGI,[8],> 100 µM
same,TGI,[9],> 100 µM
same,TGI,[10],> 100 µM
same,TGI,[53],> 100 µM
same,TGI,[11],> 100 µM
same,TGI,[12],> 100 µM
same,TGI,[14],> 100 µM
same,TGI,[15],> 100 µM
same,TGI,[16],> 100 µM
same,TGI,[17],> 100 µM
same,TGI,[18],> 100 µM
same,TGI,[20],> 100 µM
same,TGI,[21],> 100 µM
same,TGI,[22],> 100 µM
same,TGI,[23],> 100 µM
same,TGI,[24],> 100 µM
same,TGI,[25],> 100 µM
same,TGI,[26],> 100 µM
same,TGI,[27],> 100 µM
same,TGI,[28],> 100 µM
same,TGI,[56],> 100 µM
same,TGI,[30],> 100 µM
same,TGI,[59],> 100 µM
same,TGI,[31],> 100 µM
same,TGI,[32],> 100 µM
same,TGI,[33],> 100 µM
same,TGI,[34],> 100 µM
same,TGI,[57],83.4 µM
same,TGI,[35],> 100 µM
same,TGI,[36],> 100 µM
same,TGI,[37],> 100 µM
same,TGI,[39],> 100 µM
same,TGI,[41],> 100 µM
same,TGI,[42],> 100 µM
same,TGI,[43],> 100 µM
same,TGI,[44],> 100 µM
same,TGI,[45],> 100 µM
same,TGI,[46],> 100 µM
same,TGI,[47],> 100 µM
same,TGI,[49],> 100 µM
same,TGI,[50],> 100 µM
same,TGI,[51],> 100 µM
same,TGI,[52],> 100 µM

# — PubChem BioAssay (NCI)
